Test results published in US7713969B2, “Compositions and methods for treatment of cancer” (ArQule, Inc., priority 2005, dated 2010).

Experiments:
A549 = experiment: Cell viability MTS assay; format: cell-based, human
Procedure: (§1) Cell viability was determined by measuring the activity of dehydrogenase enzymes in metabolically active cells using a tetrazolium compound, MTS. The assay was performed as described in Promega Technical Bulletin No. 169 (CellTiter 96 Aqueous Non-Radioactive Cell Proliferation Assay). Thirteen human cancer cell lines were assayed (see, e.g., Table 1). Cells were maintained at 37° C., 5% CO2. Adherent cells were maintained DMEM media (4.5 g/L glucose) supplemented with 15% heat-inactivated FBS, 10 mM L-glutamine, and 10 mM Hepes pH 7.5. Suspension cells were maintained in RPMI 1640 media, supplemented with 10% heat-inactivated FBS and 10 mM Hepes pH 7.5. Briefly, cells were seeded in 96-well plates as set forth in Table 1 and incubated for 16-24 hours. Candidate compounds were serially diluted in DMSO, further diluted in cell culture media, and then added to cells (final DMSO concentration of 0.33%). Cells were incubated in the presence of candidate compound for 72 hours. MTS stock solution (MTS 2 gm/L, PMS […] in PBS) was added to the cells (final concentration MTS […] and PMS 7.67 mg/L) and incubated for 4 hours. SDS was added to a final concentration of 1.4% and absorbance at 490 nm was measured within two hours using a platereader. The IC50 was defined as the concentration of compound that results in a 50% reduction in the number of viable cells as compwered to control wells treated with DMSO only (0.33%) and was calculated using non-linear regression analyswas. IC50 values were given in Table 2 for the compounds listed.

DU-145 = experiment: Cell viability MTS assay; format: cell-based, human
Procedure: as §1

HCT-116 = experiment: Cell viability MTS assay; format: cell-based, human
Procedure: as §1

HT29 = experiment: Cell viability MTS assay; format: cell-based, human
Procedure: as §1

K562 = experiment: Cell viability MTS assay; format: cell-based, human
Procedure: as §1

MDA-MB-231 = experiment: Cell viability MTS assay; format: cell-based, human
Procedure: as §1

NCI-H446 = experiment: Cell viability MTS assay; format: cell-based, human
Procedure: as §1

NCI-H69 = experiment: Cell viability MTS assay; format: cell-based, human
Procedure: as §1

NCI-H82 = experiment: Cell viability MTS assay; format: cell-based, human
Procedure: as §1

MCF7 = experiment: Cell viability MTS assay; format: cell-based, human; settings: Homo sapiens, MCF7, 72 hours with compound
Procedure: as §1

PC-3 = experiment: Cell viability MTS assay; format: cell-based, human; settings: Homo sapiens, PC-3, 72 hours with compound
Procedure: as §1

SK-MEL-28 = experiment: Cell viability MTS assay; format: cell-based, human; settings: Homo sapiens, SK-MEL-28, 72 hours with compound
Procedure: as §1

SKOV-3 = experiment: Cell viability MTS assay; format: cell-based, human; settings: Homo sapiens, SK-OV-3, 72 hours with compound
Procedure: as §1

[1] = Homo sapiens, HT-29, 72 hours with compound
[2] = Homo sapiens, MDA-MB-231, 72 hours with compound
[3] = Homo sapiens, NCI-H446, 72 hours with compound
[4] = Homo sapiens, NCI-H82, 72 hours with compound
[5] = Homo sapiens, A549, 72 hours with compound
[6] = Homo sapiens, DU-145, 72 hours with compound
[7] = Homo sapiens, HCT-116, 72 hours with compound
[8] = Homo sapiens, K562, 72 hours with compound

Compound | IC50 (HT29; [1]) | IC50 (MDA-MB-231; [2]) | IC50 (MCF7) | IC50 (PC-3) | IC50 (SK-MEL-28) | IC50 (SKOV-3) | further results
3-(5,6-Dihydro-4H-pyrrolo[3,2,1-ij]quinolin-1-yl)-4-(2,6-dichloro-phenyl)-pyrrole-2,5-dione [Example 20] |  |  |  |  |  |  | IC50 (A549; 72 hours with compound): 38.8 µM; IC50 (DU-145; 72 hours with compound): 31.1 µM; IC50 (HCT-116; 72 hours with compound): 4.96 µM; IC50 (HT29; 72 hours with compound): > 100 µM; IC50 (K562; 72 hours with compound): 2.47 µM
O=C1NC(=O)[C@@H](c2cn3c4c(cccc24)CCC3)[C@@H]1c1cccs1 (racemic) [Example 47, (±)-Trans-3-(5,6-dihydro-4H-pyrrolo[3,2,1-ij]quinolin-1yl)-4-(2-thiophen-2-yl)pyrrolidine-2,5-dione] |  |  |  |  |  |  | IC50 (HT29; 72 hours with compound): 18.3 µM; IC50 (MDA-MB-231; 72 hours with compound): 19.9 µM; IC50 (NCI-H446; 72 hours with compound): 9.82 µM; IC50 (NCI-H69; 72 hours with compound): 4.45 µM; IC50 (NCI-H82; 72 hours with compound): 7.25 µM
O=C1NC(=O)[C@@H](c2cn3c4c(cccc24)CCC3)[C@@H]1c1ccccc1Cl (racemic) [Example 50, (±)-Trans-3-(5,6-dihydro-4H-pyrrolo[3,2,1-ij]quinolin-1yl)-4-(2-chlorophenyl)-pyrrolidine-2,5-dione] | 8.51 µM | 4.56 µM |  |  |  |  | IC50 (NCI-H446; [3]): 4.22 µM; IC50 (NCI-H69; Homo sapiens, NCI-H69, 72 hours with compound): 5.41 µM; IC50 (NCI-H82; [4]): 4.65 µM
Cn1cc([C@@H]2C(=O)NC(=O)[C@H]2c2cn3c4c(cccc24)CCC3)c2ccccc21 (racemic) [Example 51, (±)-Trans-3-(5,6-dihydro-4H-pyrrolo[3,2,1-ij]quinolin-1yl)-4-(N-methylindol-3-yl)pyrrolidine-2,5-dione] |  | 67.3 µM |  |  |  |  | IC50 (NCI-H446; [3]): 65.7 µM; IC50 (NCI-H82; [4]): 37.7 µM
COc1ccc(OC)c([C@H]2C(=O)NC(=O)[C@H]2c2cn3c4c(cccc24)CCC3)c1 (racemic) [Example 53, (±)-Cis-3-(5,6-dihydro-4H-pyrrolo[3,2,1-ij]quinolin-1yl)-4-(2,5-dimethoxyphenyl)-pyrrolidine-2,5-dione] | > 100 µM | > 100 µM | > 100 µM | > 100 µM | > 100 µM | 57.4 µM | IC50 (A549; [5]): > 100 µM; IC50 (DU-145; [6]): > 100 µM; IC50 (HCT-116; [7]): > 100 µM; IC50 (K562; [8]): 36.3 µM
O=C1NC(=O)[C@@H](c2cn3c4c(cccc24)CCC3)[C@H]1c1ccc(F)cc1Cl (racemic) [Example 54, (±)-Cis-3-(5,6-dihydro-4H-pyrrolo[3,2,1-ij]quinolin-1yl)-4-(2-chloro-4-fluoro-phenyl)-pyrrolidine-2,5-dione] | 8.78 µM |  | > 100 µM | 11.5 µM | 25.2 µM | 6.88 µM | IC50 (A549; [5]): 22.1 µM; IC50 (DU-145; [6]): 21.1 µM; IC50 (HCT-116; [7]): 7.63 µM; IC50 (K562; [8]): 3.37 µM
CN1C(=O)[C@H](c2cn(C)c3ccccc23)[C@H](c2cn3c4c(cccc24)CCC3)C1=O (racemic) [Example 61, (±)-cis-3-(5,6-dihydro-4H-pyrrolo[3,2,1-ij]quinolin-1-yl)-4(1-methylindol-3-yl)-1-methylpyrrolidine-2,5-dione] | > 100 µM | > 100 µM | > 100 µM | > 100 µM | > 100 µM | 37.6 µM | IC50 (A549; [5]): 78.9 µM; IC50 (DU-145; [6]): > 100 µM; IC50 (HCT-116; [7]): 96.2 µM; IC50 (K562; [8]): 18.7 µM
COc1cccc([C@@H]2C(=O)NC(=O)[C@H]2c2cn3c4c(cccc24)CCC3)c1 (racemic) [Example 68, (±)-Trans-3-(5,6-dihydro-4H-pyrrolo[3,2,1-ij]quinolin-1-yl)-4-(3-methoxyphenyl)pyrrolidine-2,5-dione] | 3.06 µM | 14.7 µM |  |  |  |  | melting point: 87 to 91 °C
O=C1NC(=O)[C@@H](c2cn3c4c(cccc24)CCC3)[C@H]1c1c[nH]c2ccccc12 [3(R),4(S)-3-(5,6-dihydro-4H-pyrrolo[3,2,1-ij]quinolin-1-yl)-4(1H-indol-3-yl)pyrrolidine-2,5-dione] |  |  |  |  |  |  | IC50 (HT29; 72 hours with compound): 5.5 µM; IC50 (MDA-MB-231; 72 hours with compound): 3.69 µM; IC50 (NCI-H446; 72 hours with compound): 1.27 µM; IC50 (NCI-H69; 72 hours with compound): 1.85 µM; IC50 (NCI-H82; 72 hours with compound): 1.49 µM
O=C1NC(=O)[C@@H](c2c[nH]c3ccccc23)[C@H]1c1cn2c3c(cccc13)CCC2 [3(S),4(R)-3-(5,6-dihydro-4H-pyrrolo[3,2,1-ij]quinolin-1-yl)-4(1H-indol-3-yl)pyrrolidine-2,5-dione] |  |  |  |  |  |  | IC50 (HT29; 72 hours with compound): 9.71 µM; IC50 (MDA-MB-231; 72 hours with compound): 5.17 µM; IC50 (NCI-H446; 72 hours with compound): 1.42 µM; IC50 (NCI-H69; 72 hours with compound): 2.07 µM; IC50 (NCI-H82; 72 hours with compound): 1.77 µM
COc1ccc(OC)c(C2=C(c3cn4c5c(cccc35)CCC4)C(=O)NC2=O)c1 [Example 17, 3-(5,6-Dihydro-4H-pyrrolo[3,2,1-ij]quinolin-1-yl)-4(2,5-dimethoxy-phenyl)-pyrrole-2,5-dione] | > 100 µM | > 100 µM |  |  |  |  | 
O=C1NC(=O)C(c2cn3c4c(cccc24)CCC3)=C1c1ccc(F)cc1Cl [Example 18, 3-(5,6-Dihydro-4H-pyrrolo[3,2,1-ij]quinolin-1-yl)-4-(2-chloro-4-fluoro-phenyl)-pyrrole-2,5-dione] | > 100 µM | > 100 µM |  |  |  |  | 
O=C1NC(=O)C(c2cn3c4c(cccc24)CCC3)=C1c1cccnc1 [Example 23, 3-(5,6-Dihydro-4H-pyrrolo[3,2,1-ij]quinolin-1-yl)-4-pyridine-3-yl-pyrrole-2,5-dione] | 76.8 µM | 28.7 µM |  |  |  |  | 
O=C1NC(=O)C(c2cn3c4c(cccc24)CN(C(=O)OCc2ccccc2)CC3)=C1c1c[nH]c2ccccc12 [Example 73, 7-[4-(1H-indol-3-yl)-2,5-dioxo-2,5-dihydro-1H-pyrrol-3-yl]-3,4-dihydro-1H-[1.4]diazepino[6,7,1-hi]indole-2-carboxylic acid benzyl ester] |  |  |  |  |  |  | IC50 (HT29; 72 hours with compound): > 100 µM; IC50 (MDA-MB-231; 72 hours with compound): > 100 µM
(±)-Trans-3-(5,6-dihydro-4H-pyrrolo[3,2,1-ij]quinolin-1yl)-4-(N-methylindol-3-yl)pyrrolidine-2,5-dione [Example 51] |  |  |  |  |  |  | IC50 (HT29; 72 hours with compound): 66.8 µM; IC50 (NCI-H69; 72 hours with compound): 37.7 µM

More lines, main results first:

IC50 (HT29; [1]) | IC50 (MDA-MB-231; [2]) | IC50 (MCF7) | IC50 (PC-3) | IC50 (SK-MEL-28) | IC50 (SKOV-3) | Compound | further results
13.1 µM | 15.5 µM | > 100 µM | 12.9 µM | > 100 µM | 11.6 µM | O=C1NC(=O)[C@@H](c2cn3c4c(cccc24)CCC3)[C@H]1c1cccc(Cl)c1 (racemic) [Example 55, (±)-Cis-3-(5,6-dihydro-4H-pyrrolo[3,2,1-ij]quinolin-1yl)-4-(3-chlorophenyl)-pyrrolidine-2,5-dione] | IC50 (A549; [5]): 13.1 µM; IC50 (DU-145; [6]): 35.7 µM; IC50 (HCT-116; [7]): 12.1 µM; IC50 (K562; [8]): 3.47 µM
40.9 µM | 21.5 µM |  |  |  |  | O=C1NC(=O)C(c2cn3c4c(cccc24)CCC3)=C1c1ccccc1Cl [Example 16, 3-(5,6-Dihydro-4H-pyrrolo[3,2,1-ij]quinolin-1-yl)-4-(2-chloro-phenyl)-pyrrole-2,5-dione] | 
46.8 µM | 70.5 µM | > 100 µM | 96.2 µM | 39.6 µM | 36.2 µM | O=C1NC(=O)C(c2cn3c4c(cccc24)CCC3)=C1c1cccc2ccccc12 [Example 19, 3-(5,6-Dihydro-4H-pyrrolo[3,2,1-ij]quinolin-1-yl)-4-naphthalene-1-yl-pyrrole-2,5-dione] | IC50 (A549; [5]): 41 µM; IC50 (DU-145; [6]): > 100 µM; IC50 (HCT-116; [7]): 26.2 µM; IC50 (K562; [8]): 14 µM
 | 50.3 µM | > 100 µM | 82.7 µM | 74 µM | 23.8 µM | O=C1NC(=O)C(c2cn3c4c(cccc24)CCC3)=C1c1c(Cl)cccc1Cl [Example 20, 3-(5,6-Dihydro-4H-pyrrolo[3,2,1-ij]quinolin-1-yl)-4-(2,6-dichloro-phenyl)-pyrrole-2,5-dione] | 
56.8 µM | 30 µM | > 100 µM | 22.2 µM | > 100 µM | 30.2 µM | O=C1NC(=O)C(c2cn3c4c(cccc24)CCC3)=C1c1ccccc1Br [Example 21, 3-(5,6-Dihydro-4H-pyrrolo[3,2,1-ij]quinolin-1-yl)-4-(2-bromo-phenyl)-pyrrole-2,5-dione] | IC50 (A549; [5]): 28.6 µM; IC50 (DU-145; [6]): 21.8 µM; IC50 (HCT-116; [7]): 5.44 µM; IC50 (K562; [8]): 6.42 µM
> 100 µM | 59.4 µM |  |  |  |  | O=C1NC(=O)C(n2ccc3ccccc32)=C1c1cn2c3c(cccc13)CCC2 [Example 22, 3-(5,6-Dihydro-4H-pyrrolo[3,2,1-ij]quinolin-1-yl)-4-indol-1-yl-pyrrole-2,5-dione] | 
